Tests used:
[1] = Dog irritation study (subcutaneous administration); assay type: in vivo, dogs; settings: stated in the cytotoxicity method, no details
Experimental: Male beagle dogs were purchased at the age of 5-7 months from Kitayama Labes Co., Ltd. and used in the experiment after acclimatization. The breeding environment was as follows: feeding: 250 g of solid feed once a day, water intake: unlimited, number of animals per cage: 1, temperature: 21-25°C, humidity: 50-70%, lighting time: 7:00-19:00. The test formulation was subcutaneously administered to dogs anesthetized with 25 mg/kg thiopental sodium using a plastic syringe at a dose of 10 mg/kg per formulation, changing the position on the back. […] The collected tissues were fixed in 10% neutral buffered formalin, and hematoxylin and eosin-stained specimens were prepared for histopathological examination.

HL-60 cells = assay: in vitro; assay type: cell-based, human; settings: 300 µmol/L, about 24 hours; for cytotoxicity (%) Evaluation compound results: PMA-differentiated HL-60 cells, LDH activity, no-treatment group 0%, cell lysis buffer-treated group 100%
Experimental: (§1) An HL-60 cell line (human acute promyelocytic leukemia cells) was successively cultured in RPMI 1640 containing 20% fetal bovine serum (FBS) at 37°C in 95% atmosphere/5% CO2. Before evaluation, the cells were pre-cultured for about 72 hours in the presence of 10 nM phorbol 12-myristate 13-acetate (PMA) to induce macrophage-like differentiation.
(§2) Evaluation compounds were dissolved in DMSO to obtain 30 mmol/L solutions (or suspensions). Each DMSO solution was diluted 100-fold with RPMI 1640 containing 2% FBS (final concentration of the compound: 300 µmol/L) to obtain a treatment solution. The culture supernatant of the differentiated HL-60 cells was removed, and each treatment solution was added and cultured for about 24 hours, followed by cytotoxicity evaluation.
(§3) The activity of lactate dehydrogenase (LDH) was measured in the treatment solutions exposed to the cells for about 24 hours by using a commercial kit (Cytotoxicity LDH Assay Kit-WST, Dojindo Laboratories) and a plate reader (Tecan Infinite M1000). The obtained measurement values were used to calculate cytotoxicity (%) as comparison values for each evaluation compound-treated group, with the no-treatment group taken as 0% and the cell lysis buffer-treated group taken as 100%. The test was conducted in triplicate in three wells each, and the average values were used as adopted values.

[2] = assay type: physicochemical; settings: Tris-hydrochloric acid buffer (pH 7.5) 50 mmol/L, magnesium chloride 5 mmol/L, evaluation compound 1 µmol/L, 37°C, 60 minutes, average of duplicate
Summary of the method: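 Conversion of compounds to brexpiprazole measured in buffer at 37°C, in duplicate: compound added after 3 min pre-incubation of reaction solution, and reaction stopped at 0 or 60 min with acetonitrile/isopropanol (4:1) containing internal standards. Quantified against calibration samples at 0.01, 0.1 and 1 µmol/L.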

in vitro = assay type: cell-based, human; settings: human; 300 µmol/L, about 24 hours, PMA-differentiated HL-60 cells, LDH activity; no-treatment group 0%, cell lysis buffer-treated group 100%; read-out: cytotoxicity (%) Evaluation compound results
Experimental: as §1, §2, §3

SMILES	irritation when subcutaneously administered to dogs [1]	cytotoxicity compared with control compounds (in words) (HL-60 cells)	cytotoxicity (%) Evaluation compound results (HL-60 cells) [%]	Concentration of brexpiprazole formed [2] [nM]	Concentration of evaluation compound decreased [2] [nM]	cytotoxicity at 24 h, 300 µM (in vitro) [%]
CCCCCC(=O)OCn1c(=O)ccc2ccc(OCCCCN3CCN(c4cccc5sccc45)CC3)cc21 [Reference Example 3 compound, (7-(4-(4-(benzo[b]thiophen-4-yl)piperazin-1-yl)butoxy)-2-oxoquinolin-1(2H)-yl)methyl hexanoate]	showed irritation					
O=C(OC[N+]1(CCCCOc2ccc3ccc(=O)[nH]c3c2)CCN(c2cccc3sccc23)CC1)N1CCCCC1.[I-] [REX 4, 4-(benzo[b]thiophen-4-yl)-1-(4-((2-oxo-1,2-dihydroquinolin-7-yl)oxy)butyl)-1-(((piperidine-1-carbonyl)oxy)methyl)piperazin-1-ium iodide, reference compound]		stronger cytotoxicity than that of the Reference Example 3 compound	83			
COCCn1nc(C(=O)OCOP(=O)([O-])OC[N+]2(CCCCOc3ccc4ccc(=O)[nH]c4c3)CCN(c3cccc4sccc34)CC2)c2ccccc21 [EX 82]			-2	0	20	
CC(C)(C)[Si](C)(C)OCCCCOP(=O)([O-])OC[N+]1(CCCCOc2ccc3ccc(=O)[nH]c3c2)CCN(c2cccc3sccc23)CC1 [EX 60]			16	0	90	
O=c1ccc2ccc(OCCCC[N+]3(COP(=O)([O-])OCCCO)CCN(c4cccc5sccc45)CC3)cc2[nH]1 [EX 6, (4-(benzo[b]thiophen-4-yl)-1-(4-((2-oxo-1,2-dihydroquinolin-7-yl)oxy)butyl)piperazin-1-ium-1-yl)methyl (3-hydroxypropyl) phosphate]				0	-110	16
COCCN(CCOC)P(=O)([O-])OC[N+]1(CCCCOc2ccc3ccc(=O)[nH]c3c2)CCN(c2cccc3sccc23)CC1 [EX 153]			-7	0	-10	
O=c1ccc2ccc(OCCCC[N+]3(COP(=O)([O-])OCCN4CCOCC4)CCN(c4cccc5sccc45)CC3)cc2[nH]1 [EX 14, (4-(benzo[b]thiophen-4-yl)-1-(4-((2-oxo-1,2-dihydroquinolin-7-yl)oxy)butyl)piperazin-1-ium-1-yl)methyl (2-morpholinoethyl)phosphate]				0	80	-10
CC(C)OP(=O)([O-])OC[N+]1(CCCCOc2ccc3ccc(=O)[nH]c3c2)CCN(c2cccc3sccc23)CC1 [EX 5, (4-(benzo[b]thiophen-4-yl)-1-(4-((2-oxo-1,2-dihydroquinolin-7-yl)oxy)butyl)piperazin-1-ium-1-yl)methyl isopropyl phosphate]				0	70	-4
CC(=O)OCCCOP(=O)([O-])OC[N+]1(CCCCOc2ccc3ccc(=O)[nH]c3c2)CCN(c2cccc3sccc23)CC1 [EX 15, 3-acetoxypropyl ((4-(benzo[b]thiophen-4-yl)-1-(4-((2-oxo-1,2-dihydroquinolin-7-yl)oxy)butyl)piperazin-1-ium-1-yl)methyl)phosphate]				0	0	3
O=C(OCOP(=O)([O-])OC[N+]1(CCCCOc2ccc3ccc(=O)[nH]c3c2)CCN(c2cccc3sccc23)CC1)OC1CCCCC1 [EX 19, (4-(benzo[b]thiophen-4-yl)-1-(4-((2-oxo-1,2-dihydroquinolin-7-yl)oxy)butyl)piperazin-1-ium-1-yl)methyl ((((cyclohexyloxy)carbonyl)oxy)methyl)phosphate]				0	-70	16
CCOC(=O)COP(=O)([O-])OC[N+]1(CCCCOc2ccc3ccc(=O)[nH]c3c2)CCN(c2cccc3sccc23)CC1 [EX 8, (4-(benzo[b]thiophen-4-yl)-1-(4-((2-oxo-1,2-dihydroquinolin-7-yl)oxy)butyl)piperazin-1-ium-1-yl)methyl (2-ethoxy-2-oxoethyl)phosphate]				10	70	15
